Four compounds from patent publication US6087334A, “Anti-diabetic peptides” (Amylin Pharmaceuticals, Inc., priority 1998, dated 2000) can be followed below.

The target in the test is T1, C1a receptor (C1a-type calcitonin receptor) (Rattus norvegicus, UniProt P32214).
T1 construct: expressed in transfected cells
T1 sequence (P32214 25-479 isoform P32214-2 limits assumed): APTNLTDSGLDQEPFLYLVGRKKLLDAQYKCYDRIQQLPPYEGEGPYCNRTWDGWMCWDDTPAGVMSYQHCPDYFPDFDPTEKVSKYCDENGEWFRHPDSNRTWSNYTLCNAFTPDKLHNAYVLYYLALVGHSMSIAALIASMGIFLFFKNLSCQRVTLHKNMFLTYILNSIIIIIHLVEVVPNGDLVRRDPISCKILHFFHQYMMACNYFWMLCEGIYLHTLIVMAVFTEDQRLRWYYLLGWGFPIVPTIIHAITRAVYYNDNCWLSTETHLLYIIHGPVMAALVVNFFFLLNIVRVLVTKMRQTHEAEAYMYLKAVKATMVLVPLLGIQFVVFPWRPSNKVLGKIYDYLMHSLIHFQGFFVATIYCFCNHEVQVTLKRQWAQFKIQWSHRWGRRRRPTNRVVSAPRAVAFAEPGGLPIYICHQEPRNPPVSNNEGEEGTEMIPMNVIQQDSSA
The test can be described thus: biochemical. The following applies: HEK293 plasma membranes, [35S]-GTPγS 200 pM; read-out: ED50 (nM) Example B (C1a GTPγS). (GTPγS is a poorly hydrolysed GTP analogue; its binding reports G protein activation.)

Where a SMILES comes first, the peptide text is derived from it. Bridges are numbered along the chain shown (N, C = ends).

With `CC(C)C[C@H](NC(=O)[C@H](CCCNC(=N)N)NC(=O)[C@H](C)NC(=O)[C@@H](NC(=O)[C@H](C)NC(=O)[C@H](C)NC(=O)[C@@H](NC(=O)[C@H](CO)NC(=O)[C@@H](N)CC(C)C)[C@@H](C)O)[C@@H](C)O)C(=O)N[C@@H](C)C(=O)N[C@@H](C)C(=O)N[C@@H](Cc1ccccc1)C(=O)N[C@@H](CC(C)C)C(=O)N[C@@H](C)C(=O)N[C@@H](CCCNC(=N)N)C(=O)N[C@@H](CO)C(N)=O` [Example 6] (H-LSTAATARLAAFLARS-NH2), the EC50 was found to be 0.58 nM. Next, `CC(C)C[C@H](NC(=O)[C@H](CCCNC(=N)N)NC(=O)[C@H](C)NC(=O)[C@@H](NC(=O)[C@H](C)NC(=O)[C@@H]1CSSC[C@H](N)C(=O)N[C@@H](CC(N)=O)C(=O)N[C@@H]([C@@H](C)O)C(=O)N[C@@H](C)C(=O)N[C@@H]([C@@H](C)O)C(=O)N1)[C@@H](C)O)C(=O)N[C@@H](C)C(=O)N[C@@H](C)C(=O)N[C@@H](Cc1ccccc1)C(=O)N[C@@H](CC(C)C)C(=O)N[C@@H](C)C(=O)N[C@@H](CCCNC(=N)N)C(=O)N[C@@H](CO)C(N)=O` [Example 3] (H-CNTATCATARLAAFLARS-NH2; disulfide 1-6): 1.2 nM. For `CC(C)C[C@H](NC(=O)[C@H](CCCNC(=N)N)NC(=O)[C@H](C)NC(=O)[C@@H](NC(=O)[C@H](C)NC(=O)[C@@H]1CSSC[C@H](NC(=O)[C@@H](N)CCCCN)C(=O)N[C@@H](CC(N)=O)C(=O)N[C@@H]([C@@H](C)O)C(=O)N[C@@H](C)C(=O)N[C@@H]([C@@H](C)O)C(=O)N1)[C@@H](C)O)C(=O)N[C@@H](C)C(=O)N[C@@H](CC(N)=O)C(=O)N[C@@H](Cc1ccccc1)C(=O)N[C@@H](CC(C)C)C(=O)N[C@H](C(=O)N[C@@H](CCCNC(=N)N)C(=O)N[C@@H](CO)C(=O)N[C@@H](CO)C(=O)NCC(=O)N[C@@H](Cc1ccc(O)cc1)C(N)=O)C(C)C` [Example 5] (H-KCNTATCATARLANFLVRSSGY-NH2; disulfide 2-7), the EC50 was 5.5 nM.

As to `CC(C)C[C@H](NC(=O)[C@H](CCCNC(=N)N)NC(=O)[C@H](C)NC(=O)[C@@H](NC(=O)[C@H](C)NC(=O)[C@@H]1CSSC[C@H](NC(=O)[C@@H](N)CCCCN)C(=O)N[C@@H](CC(N)=O)C(=O)N[C@@H]([C@@H](C)O)C(=O)N[C@@H](C)C(=O)N[C@@H]([C@@H](C)O)C(=O)N1)[C@@H](C)O)C(=O)N[C@@H](C)C(=O)N[C@@H](C)C(=O)N[C@@H](Cc1ccccc1)C(=O)N[C@@H](CC(C)C)C(=O)N[C@@H](C)C(=O)N[C@@H](CCCNC(=N)N)C(=O)N[C@@H](CO)C(=O)N[C@@H](CO)C(=O)NCC(=O)N[C@@H](Cc1ccc(O)cc1)C(N)=O` [Example 1] (H-KCNTATCATARLAAFLARSSGY-NH2; disulfide 2-7), the EC50 turned out to be 0.7 nM.
